Data taken from US11744819B2, “Antibiotic cannabinoid-terpene formulations” (priority 2019, dated 2023).
Converted amounts (≈) assume the structure as drawn. “And” between values parts separate entries of the source, which are not always exact repeats. Identical values can stand only once. Like-named read-outs stand apart in the source and are kept apart here.

How the values were obtained:
E. faecium 3303 = test: microbe, parasite or virus in culture; assay type: cell-based, Enterococcus faecium; settings: for Max. fold change in MIC: decrease
Source text: In therapeutic applications, synergy between active ingredients occurs when an observed combined therapeutic effect is greater than the sum of therapeutic effects of individual active ingredients, or a new therapeutic effect is produced that the active ingredients could not produce alone. […] In this context, the enhancement of therapeutic effect may take the form of increased efficacy or potency and/or decreased adverse effects. The synergistic effect may be mediated in whole or in part by the pharmacokinetics and/or pharmacodynamics of the active ingredients in a subject, so that the amount and proportion of the ingredients in the formulation may be synergistic in vivo. This in vivo synergy may be effected with a formulation that includes the active ingredients in amounts and proportions that are also synergistic in in vitro assays of efficacy. As used herein, the term “synergistically effective amounts” accordingly refers to amounts that are synergistic in vivo and/or in vitro. A numeric quantification of synergy is often expressed as a fractional inhibitory concentration index (FICI), which represents the sum of the fractional inhibitory concentrations (FICs) of each drug tested, where the FIC is determined for each drug by dividing the minimum inhibitory concentration (MIC, the lowest concentration of the drug which prevents visible growth of the bacterium in a standard in vitro assay-standard colorometric assay based on resazurin) of each drug when used in combination by the MIC of each drug when used alone. In very general terms, a FICI lower or higher than 1 indicates positively correlated activity (at least additive or potentiation) or an absence of positive interactions, respectively. More definitively, synergy of two compounds may be conservatively defined as a FICI of ::::0.5 (see Odds, 2003; with additivity or potentiation corresponding to a FICI of >0.5 to ::::0.75; no interaction (indifference) corresponding to a FICI of >1 to ::::4; and antagonism corresponding to a FICI of >>4). Synergy of three compounds has been defined as a FICI of ::::1.0. (Berenbaum, 1978; Yu et al., 1980). To estimate the optimal concentrations in triple combinations, the optimal concentrations of trans-caryophyllene and cannabinoid were utilized in combination with a series of daptomycin dilutions.
(§1) Pre-cultures of bacteria growing in their corresponding liquid media (defined below) were diluted to an 00600 of 0.0025 and 100 μl was added to 100 μl of medium containing serial 2-fold dilutions of cannabinoid (cannabinoid stocks, in methanol or acetonitrile for acidic forms, were diluted in growth medium) in 96-well plates. Plates were then incubated for 20-24 h at 37° C., and growth was recorded as 00600 in a Thermo Scientific™ Varioskan™ Flash Multimode Reader.
Method for Tables 4-7. Interaction of Cannabinoids CBC, CBD and CBG with Terpenes and Daptomycin:
(§2) FICI values was determined in a 96 well checkerboard format using the MIC assay for cannabinoids (compound A), terpenes (compound B), and daptomycin (compound C) alone and in combinations. Terpene stocks were prepared in DMSO and diluted in the growth medium. The fractional inhibitory concentration for each compound was calculated as follows: FICA=(MIC of compound A in the presence of compound B)/(MIC of compound A alone). Similarly, the FICs for compounds Band C were calculated. The FICI was calculated as FICA plus FICs plus FICc.

[1] = test system: E. faecium clinical isolate 58C9 (vancomycin and daptomycin resistant); settings: for MIC: clinical enterococcal strain 58C9, vancomycin and daptomycin resistant
[2] = test system: Staphylococcus epidermidis ATCC 14990; test: MIC determination; assay type: cell-based; settings: Staphylococcus epidermidis, ATCC14990
[3] = test system: Enterococcus faecium 33D3; settings: for MIC: clinical enterococcal strain 3303
[4] = test system: E. faecium clinical isolate 69C6 (vancomycin resistant); test: microbe, parasite or virus in culture; settings: Enterococcus faecium
[5] = test system: Mycobacterium tuberculosis H37Rv; test: MIC determination (PrestoBlue); assay type: cell-based; settings: Mycobacterium tuberculosis, H37RV
Enterococcus faecalis = test: MIC determination; assay type: cell-based
E. faecium VRE 55A6 = test: microbe, parasite or virus in culture; assay type: cell-based, Enterococcus faecium
Source text: In therapeutic applications, synergy between active ingredients occurs when an observed combined therapeutic effect is greater than the sum of therapeutic effects of individual active ingredients, or a new therapeutic effect is produced that the active ingredients could not produce alone. […] In this context, the enhancement of therapeutic effect may take the form of increased efficacy or potency and/or decreased adverse effects. The synergistic effect may be mediated in whole or in part by the pharmacokinetics and/or pharmacodynamics of the active ingredients in a subject, so that the amount and proportion of the ingredients in the formulation may be synergistic in vivo. This in vivo synergy may be effected with a formulation that includes the active ingredients in amounts and proportions that are also synergistic in in vitro assays of efficacy. As used herein, the term “synergistically effective amounts” accordingly refers to amounts that are synergistic in vivo and/or in vitro. A numeric quantification of synergy is often expressed as a fractional inhibitory concentration index (FICI), which represents the sum of the fractional inhibitory concentrations (FICs) of each drug tested, where the FIC is determined for each drug by dividing the minimum inhibitory concentration (MIC, the lowest concentration of the drug which prevents visible growth of the bacterium in a standard in vitro assay-standard colorometric assay based on resazurin) of each drug when used in combination by the MIC of each drug when used alone. In very general terms, a FICI lower or higher than 1 indicates positively correlated activity (at least additive or potentiation) or an absence of positive interactions, respectively. More definitively, synergy of two compounds may be conservatively defined as a FICI of ::::0.5 (see Odds, 2003; with additivity or potentiation corresponding to a FICI of >0.5 to ::::0.75; no interaction (indifference) corresponding to a FICI of >1 to ::::4; and antagonism corresponding to a FICI of >>4). […] (Berenbaum, 1978; Yu et al., 1980). To estimate the optimal concentrations in triple combinations, the optimal concentrations of trans-caryophyllene and cannabinoid were utilized in combination with a series of daptomycin dilutions.
as §1, §2

[6] = test system: Staphylococcus aureus MRSA; test: microbe, parasite or virus in culture; assay type: cell-based
[7] = E. faecium 3303, compound alone in checkerboard
[8] = E. faecium 3303, pairwise, with daptomycin
[9] = E. faecium 3303, pairwise, with trans-caryophyllene
[10] = E. faecium 3303, triple, with daptomycin and trans-caryophyllene
[11] = E. faecium VRE 55A6, compound alone in checkerboard
[12] = E. faecium VRE 55A6, pairwise, with daptomycin
[13] = E. faecium VRE 55A6, pairwise, with trans-caryophyllene
[14] = E. faecium VRE 55A6, triple, with daptomycin and trans-caryophyllene
[15] = E. faecium 3303, pairwise, with CBC
[16] = E. faecium 3303, pairwise, with CBD
[17] = E. faecium 3303, pairwise, with CBG
[18] = E. faecium 3303, text b61, Table 5
[19] = E. faecium 3303, triple, with CBC and trans-caryophyllene
[20] = E. faecium 3303, triple, with CBG and trans-caryophyllene
[21] = E. faecium VRE 55A6, pairwise, with CBC
[22] = E. faecium VRE 55A6, pairwise, with CBD
[23] = E. faecium VRE 55A6, pairwise, with CBG
[24] = E. faecium VRE 55A6, text b61, Table 7D
[25] = E. faecium VRE 55A6, triple, with CBC and trans-caryophyllene
[26] = E. faecium VRE 55A6, triple, with CBD and trans-caryophyllene
[27] = E. faecium VRE 55A6, triple, with CBG and trans-caryophyllene

CCCCCc1cc(O)c2c(c1)OC(C)(CCC=C(C)C)C=C2 (centres unmarked) [CBC, cannabichromene]
MIC Alone (E. faecium 3303; [7]): 2 µg/mL | MIC In combination (E. faecium 3303; [8]): 0.5 µg/mL | Max. fold change in MIC (E. faecium 3303; [8]): 4 l fold | MIC In combination (E. faecium 3303; [9]): 0.125 µg/mL | Max. fold change in MIC (E. faecium 3303; [9]): 16 l fold | MIC In combination (E. faecium 3303; [10]): 0.25 µg/mL | Max. fold change in MIC (E. faecium 3303; [10]): 8 l fold | MIC (E. faecium 3303; Enterococcus faecium, 3303, read-out: MIC Alone, E. faecium 3303, compound alone in checkerboard): 1 µg/mL | Fold reduction in daptomycin MIC in combination with the cannabinoid ([1]; E. faecium isolate 58c9): 8 Fold | MIC [2]: 4 µg/mL (≈ 12.7 µM) | Fold reduction in daptomycin MIC in combination with the cannabinoid ([3]; E. faecium isolate 3303): 128 Fold | MIC [4]: 1 µg/mL (≈ 3.18 µM) | MIC ([5]; Media 7H9, read-out: MIC): 8 µg/mL (≈ 25.4 µM) | MIC ([5]; Media PB, read-out: MIC): 4 µg/mL (≈ 12.7 µM) | MIC (Enterococcus faecalis): 2 µg/mL (≈ 6.36 µM) | MIC Alone (E. faecium VRE 55A6; [11]): 1 µg/mL | MIC In combination (E. faecium VRE 55A6; [12]): 0.25 µg/mL | Max. fold change in MIC (E. faecium VRE 55A6; [12]): 8 fold | MIC In combination (E. faecium VRE 55A6; [13]): 0.5 µg/mL | Max. fold change in MIC (E. faecium VRE 55A6; [13]): 2 fold | MIC In combination (E. faecium VRE 55A6; [14]): 0.25 µg/mL | Max. fold change in MIC (E. faecium VRE 55A6; [14]): 8 fold | MIC (E. faecium VRE 55A6; Enterococcus faecium, VRE, read-out: MIC Alone, E. faecium VRE 55A6, compound alone in checkerboard): 2 µg/mL | MIC [6]: 4 µg/mL (≈ 12.7 µM)

CCCCCCCCCC(=O)N[C@@H](Cc1c[nH]c2ccccc12)C(=O)N[C@H](CC(N)=O)C(=O)N[C@@H](CC(=O)O)C(=O)N[C@@H]1C(=O)NCC(=O)N[C@@H](CCCN)C(=O)N[C@@H](CC(=O)O)C(=O)N[C@H](C)C(=O)N[C@@H](CC(=O)O)C(=O)NCC(=O)N[C@H](CO)C(=O)N[C@@H]([C@H](C)CC(=O)O)C(=O)N[C@@H](CC(=O)c2ccccc2N)C(=O)O[C@@H]1C [Daptomycin, daptomycin, reference compound]
MIC Alone (E. faecium 3303; [7]): 8 µg/mL | MIC Alone (E. faecium 3303; E. faecium 3303, compound alone in checkerboard, listed as daptomycin): 4 µg/mL | MIC In combination (E. faecium 3303; [15]): 0.03125 µg/mL | Max. fold change in MIC (E. faecium 3303; [15]): 128 l fold | Max. fold change in MIC (E. faecium 3303; E. faecium 3303, pairwise, with CBC, listed as daptomycin): 128 fold | MIC In combination (E. faecium 3303; [16]): 0.25 µg/mL | Max. fold change in MIC (E. faecium 3303; [16]): 16″′ fold | MIC In combination (E. faecium 3303; [17]): 0.25 µg/mL | Max. fold change in MIC (E. faecium 3303; [17]): 32″′ fold | MIC In combination (E. faecium 3303; [9]): 0.5 µg/mL | Max. fold change in MIC (E. faecium 3303; [9]): 8 l fold and 8″′ fold | MIC of daptomycin (alone) (E. faecium 3303; [18]): 8 µg/mL | MIC of daptomycin in the presence of CBO and trans caryophyllene (E. faecium 3303; [18]): 0.03 µg/mL | MIC In combination (E. faecium 3303; [19]): 4 µg/mL | Max. fold change in MIC (E. faecium 3303; [19]): 2 l fold | MIC In combination (E. faecium 3303; E. faecium 3303, triple, with CBD and trans-caryophyllene): 0.03 µg/mL | Max. fold change in MIC (E. faecium 3303; E. faecium 3303, triple, with CBD and trans-caryophyllene, listed as daptomycin): 256 fold | MIC In combination (E. faecium 3303; [20]): 2 µg/mL | Max. fold change in MIC (E. faecium 3303; [20]): 4 l fold | MIC [1]: 8 µg/mL (≈ 4.94 µM) | MIC ([1]; listed as daptomycin): 4 µg/mL (≈ 2.47 µM) | MIC [3]: 2 µg/mL (≈ 1.23 µM) | MIC ([3]; listed as daptomycin): 1 µg/mL (≈ 0.617 µM) | MIC Alone (E. faecium VRE 55A6; [11]): 16 µg/mL and >16 µg/mL | MIC In combination (E. faecium VRE 55A6; [21]): 0.031 µg/mL | Max. fold change in MIC (E. faecium VRE 55A6; [21]): 512 fold | MIC In combination (E. faecium VRE 55A6; [22]): 1 µg/mL | Max. fold change in MIC (E. faecium VRE 55A6; [22]): 16 fold | MIC In combination (E. faecium VRE 55A6; [23]): 4 µg/mL | Max. fold change in MIC (E. faecium VRE 55A6; [23]): 4 fold | MIC In combination (E. faecium VRE 55A6; [13]): 8 µg/mL | Max. fold change in MIC (E. faecium VRE 55A6; [13]): 2 fold | MIC of daptomycin (alone) (E. faecium VRE 55A6; [24]): > 16 µg/mL | MIC of daptomycin in the presence of CBC and trans caryophyllene (E. faecium VRE 55A6; [24]): 0.03 µg/mL | MIC In combination (E. faecium VRE 55A6; [25]): 0.03 µg/mL | Max. fold change in MIC (E. faecium VRE 55A6; [25]): >512 fold | Max. fold change in MIC (E. faecium VRE 55A6; E. faecium VRE 55A6, triple, with CBC and trans-caryophyllene, listed as daptomycin): > 512 fold | MIC In combination (E. faecium VRE 55A6; [26]): 2 µg/mL | Max. fold change in MIC (E. faecium VRE 55A6; [26]): >8 fold | MIC In combination (E. faecium VRE 55A6; [27]): 2 µg/mL | Max. fold change in MIC (E. faecium VRE 55A6; [27]): >8 fold
